The target of series [1] is T1, 11βHSD1 (Homo sapiens, UniProt P28845).
T1 construct: made in house; host or cells: S. cerevisiae yeast
Nature of the series: 11βHSD1 Scintillation Proximity Assay (SPA), 384-well format. The conditions noted are these: recombinant 11βHSD1 produced in S. cerevisiae; 3H-cortisone and NADPH; cortisol formed measured by SPA. It is filed as biochemical. As for the experimental part:
The compounds according to the invention have undergone pharmacological tests for determining their inhibitory effect on the enzyme 11βHSD1, which is involved in lipid metabolism and in glucose metabolism.
These tests consisted of measuring the inhibitory activity in vitro of compounds of the invention on the enzyme 11βHSD1 using a Scintillation Proximity Assay (SPA) in 384-well format. The recombinant 1βHSD1 protein was produced in S. cerevisiae yeast. The reaction was carried out by incubating the enzyme in the presence of ^3H-cortisone and NADPH, in the absence or in the presence of increasing concentration of inhibitor. SPA beads coupled to an antimouse antibody, preincubated with an anticortisol antibody, made it possible to measure the amount of cortisol formed during the reaction.
The inhibitory activity with respect to the enzyme 11βHSD1 is given by the concentration that inhibits 50% of the activity of 11βHSD1 (IC50).

The test system of series [2] is healthy volunteers. The conditions noted are these: after seven days of treatment, healthy volunteers (Rauz et al. 2001); cited from earlier work.

Structures can show the parent of a compound that is named as a salt.

T1 sequence (P28845 whole entry): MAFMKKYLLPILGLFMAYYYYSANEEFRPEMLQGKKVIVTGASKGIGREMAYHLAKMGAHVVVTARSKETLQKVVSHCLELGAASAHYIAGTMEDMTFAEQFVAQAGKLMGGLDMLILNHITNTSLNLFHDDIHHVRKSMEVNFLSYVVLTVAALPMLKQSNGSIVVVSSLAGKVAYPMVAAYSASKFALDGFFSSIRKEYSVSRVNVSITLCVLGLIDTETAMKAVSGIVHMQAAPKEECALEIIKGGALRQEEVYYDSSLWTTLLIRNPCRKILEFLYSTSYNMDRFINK

Usually IC50 stands for the concentration at which inhibition is half-maximal. In general, melting point refers to the temperature, or range, at which the solid turns liquid. Consider `NC(=O)[C@]12CC3CC(C1)[C@H](NC(=O)N1CCN(c4ccc(N5CCC(N6CCS(=O)(=O)CC6)CC5)cn4)c4ccccc41)C(C3)C2` [Compound 5, Trans 4-[4-(1,1-dioxo-1lambda6-thiomorpholin-4-yl)-3,4,5,6-tetrahydro-2H-[1,3′]bipyridinyl-6′-yl]-3,4-dihydro-2H-quinoxaline-1-carboxylic acid (5-carbamoyl-adamantan-2-yl)-amide], for which the melting point was 160 to 200 °C. Also, the IC50 in series [1] turned out to be 4 nM.
Consider `C[Si](C)(C)CN1CCN(c2ccc(N3CCN(C(=O)NC4C5CC6CC4CC(O)(C6)C5)c4ccccc43)nc2)CC1` (stereo not drawn) [Compound 1, Trans 4-[5-(4-trimethylsilanylmethyl-piperazin-1-yl)-pyridin-2-yl]-3,4-dihydro-2H-quinoxaline-1-carboxylic acid (5-hydroxy-adamantan-2-yl)-amide], for which, in series [1], the IC50 came to 7 nM.
In turn, `C[Si]1(C)CCN(c2ccc(N3CCN(C(=O)NC4C5CC6CC4CC(C(N)=O)(C6)C5)c4ccccc43)nc2)CC1` (stereo not drawn) [Compound 14, Trans 4-[5-(4,4-dimethyl-[1,4]azasilinan-1-yl)-pyridin-2-yl]-3,4-dihydro-2H-quinoxaline-1-carboxylic acid (5-carbamoyl-adamantan-2-yl)-amide] gave a melting point of 213 to 216 °C. In addition, the IC50 in series [1] worked out at 12 nM.
`NC(=O)C12CC3CC(C1)C(NC(=O)N1CCN(c4ccc(N5CCC(N6CCC[C@H]6CO)CC5)cn4)c4ccccc41)C(C3)C2` (stereo in doubt) [Compound 7, Trans 4-[4-((S)-2-hydroxymethyl-pyrrolidin-1-yl)-3,4,5,6-tetrahydro-2H-[1,3′]bipyridinyl-6′-yl]-3,4-dihydro-2H-quinoxaline-1-carboxylic acid (5-carbamoyl-adamantan-2-yl)-amide]: in series [1], the IC50 is 3 nM.
With `CC1(C)[C@@H](OC(=O)CCC(=O)O)CC[C@]2(C)[C@H]3C(=O)C=C4[C@@H]5C[C@@](C)(C(=O)O)CC[C@]5(C)CC[C@@]4(C)[C@]3(C)CC[C@@H]12` [carbenoxolone], the “IOP is reduced by” value in series [2] was 18%.
On to `NC(=O)C12CC3CC(C1)C(NC(=O)N1CCN(c4ccc(N5CCC(N6CC[C@H](O)C6)CC5)cn4)c4ccccc41)C(C3)C2` (stereo in doubt) [Compound 8, Trans 4-[4-((S)-3-hydroxy-pyrrolidin-1-yl)-3,4,5,6-tetrahydro-2H-[1,3′]bipyridinyl-6′-yl]-3,4-dihydro-2H-quinoxaline-1-carboxylic acid (5-carbamoyl-adamantan-2-yl)-amide], for which the IC50 in series [1] stood at 6 nM.
On to `NC(=O)C12CC3CC(C1)C(NC(=O)N1CCN(c4ccc(N5CCC(N6CCC(F)(F)C6)CC5)cn4)c4ccccc41)C(C3)C2` (stereo not drawn) (as salt: HCl) [Compound 10, Trans 4-[4-(3,3-difluoro-pyrrolidin-1-yl)-3,4,5,6-tetrahydro-2H-[1,3′]bipyridinyl-6′-yl]-3,4-dihydro-2H-quinoxaline-1-carboxylic acid (5-carbamoyl-adamantan-2-yl)-amide], for which the melting point is 196 °C.
`C[Si](C)(C)CCS(=O)(=O)N1CCN(c2ccc(N3CCN(C(=O)NC4C5CC6CC4CC(O)(C6)C5)c4ccccc43)nc2)CC1` (stereo not drawn) [Compound 3, Trans 4-{5-[4-(2-trimethylsilanyl-ethanesulfonyl)-piperazin-1-yl]-pyridin-2-yl}-3,4-dihydro-2H-quinoxaline-1-carboxylic acid (5-hydroxy-adamantan-2-yl)-amide] displayed a melting point of 107 to 120 °C. Also, the IC50 in series [1] turned out to be 10 nM.
Compound `NC(=O)[C@]12CC3CC(C1)[C@H](NC(=O)N1CCN(c4ccc(N5CCC(N6CC[C@@H](O)C6)CC5)cn4)c4ccccc41)C(C3)C2` (as salt: HCl) [Compound 9, Trans 4-[4-((R)-3-hydroxy-pyrrolidin-1-yl)-3,4,5,6,-tetrahydro-2H-[1,3′]bipyridinyl-6′-yl]-3,4-dihydro-2H-quinoxaline-1-carboxylic acid (5-carbamoyl-adamantan-2-yl)-amide] had a melting point of 191 °C.
Regarding `NC(=O)C12CC3CC(C1)C(NC(=O)N1CCN(c4ccc(N5CCC(N6CCC(F)(F)C6)CC5)cn4)c4ccccc41)C(C3)C2` (stereo not drawn) [Compound 10, Trans 4-[4-(3,3-difluoro-pyrrolidin-1-yl)-3,4,5,6-tetrahydro-2H-[1,3′]bipyridinyl-6′-yl]-3,4-dihydro-2H-quinoxaline-1-carboxylic acid (5-carbamoyl-adamantan-2-yl)-amide], the IC50 in series [1] was found to be 2 nM.
`NC(=O)[C@]12CC3CC(C1)[C@H](NC(=O)N1CCN(c4ccc(N5CCC6(CC5)CC6C(=O)O)cn4)c4ccccc41)C(C3)C2` (stereo partly drawn) [Compound 12, trans-6-{6-[4-(5-Carbamoyl-adamantan-2-ylcarbamoyl)-3,4-dihydro-2H-quinoxalin-1-yl]-pyridin-3-yl}-6-aza-spiro[2.5]octane-1-carboxylic acid] had a melting point of 145 to 160 °C. The IC50 in series [1] turned out to be 6 nM.
Taken in the same sequence, the figures for `Cl.NC(=O)[C@]12CC3CC(C1)[C@H](NC(=O)N1CCN(c4ccc(N5CCC6(CC5)CC6(F)F)cn4)c4ccccc41)C(C3)C2` [Compound 11, Trans 4-[5-(1,1-difluoro-6-aza-spiro[2.5]oct-6-yl)-pyridin-2-yl]-3,4-dihydro-2H-quinoxaline-1-carboxylic acid (5-carbamoyl-adamantan-2-yl)-amide] were 134 to 170 °C and 3 nM.
On to `NC(=O)[C@]12CC3CC(C1)[C@H](NC(=O)N1CCN(c4ccc(N5CCC(N6CC[C@@H](O)C6)CC5)cn4)c4ccccc41)C(C3)C2` [Compound 9, Trans 4-[4-((R)-3-hydroxy-pyrrolidin-1-yl)-3,4,5,6,-tetrahydro-2H-[1,3′]bipyridinyl-6′-yl]-3,4-dihydro-2H-quinoxaline-1-carboxylic acid (5-carbamoyl-adamantan-2-yl)-amide], for which, in series [1], the IC50 came to 2 nM.
The same measure, in the same setting: in the case of `NC(=O)C12CC3CC(C1)C(NC(=O)N1CCN(c4ccc(N5CCC(N6CCC[C@@H]6CO)CC5)cn4)c4ccccc41)C(C3)C2` (stereo in doubt) [Compound 6, Trans 4-[4-((R)-2-hydroxymethyl-pyrrolidin-1-yl)-3,4,5,6-tetrahydro-2H-[1,3′]bipyridinyl-6′-yl]-3,4-dihydro-2H-quinoxaline-1-carboxylic acid (5-carbamoyl-adamantan-2-yl)-amide] it was 4 nM.
In the case of `NC(=O)[C@]12CC3CC(C1)[C@H](NC(=O)N1CCN(c4ccc(N5CCN(CC6CC6(F)F)CC5)cn4)c4ccccc41)C(C3)C2` (stereo partly drawn) [Compound 4, Trans 4-{5-[4-(2,2-difluoro-cyclopropylmethyl)-piperazin-1-yl]-pyridin-2-yl}-3,4-dihydro-2H-quinoxaline-1-carboxylic acid (5-carbamoyl-adamantan-2-yl)-amide], the melting point is 206 °C. In addition, the IC50 in series [1] came to 3 nM.
Taken in the same sequence, the figures for `CC(C)(C)ON=C1CCN(c2ccc(N3CCN(C(=O)N[C@H]4C5CC6CC4C[C@@](O)(C6)C5)c4ccccc43)nc2)CC1` [Compound 2, Trans 4-(4-tert-butoxyimino-3,4,5,6-tetrahydro-2H-[1,3′]bipyridinyl-6′-yl)-3,4-dihydro-2H-quinoxaline-1-carboxylic acid (5-hydroxy-adamantan-2-yl)-amide] were 110 to 113 °C and 23 nM.
`C[Si]1(c2ccccc2)CCN(c2ccc(N3CCN(C(=O)N[C@H]4C5CC6CC4C[C@@](C(N)=O)(C6)C5)c4ccccc43)nc2)CC1` [Compound 13, Trans 4-[5-(4-methyl-4-phenyl-[1,4]azasilinan-1-yl)-pyridin-2-yl]-3,4-dihydro-2H-quinoxaline-1-carboxylic acid (5-carbamoyl-adamantan-2-yl)-amide]: the melting point is 106 to 108 °C. Further, in series [1], the IC50 was 25 nM.

The record behind these values is patent US8530473B2, “Tetrahydroquinoxaline urea derivatives as modulators of 11β-hydroxysteroid dehydrogenase type 1” (Sanofi, priority 2009, dated 2013).
